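Values below derive from 48-hour exposures of cells grown in 96-well plates, with endpoints linearly interpolated between the two concentrations bracketing the appropriate inhibition level. TGI is the concentration that stops growth completely.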
Assays:
Assay in all cases: growth of human tumour cells (NCI), 48 h
A498 renal = system: A498 renal
A549 NSCLC = system: A549 NSCLC
ACHN renal = system: ACHN renal
CCRF-CEM leukemia = system: CCRF-CEM leukemia
COLO 205 colon = system: COLO 205 colon
DLD-1 colon = system: DLD-1 colon
HCC-2998 colon = system: HCC-2998 colon
HCT-116 colon = system: HCT-116 colon
HL-60(TB) leukemia = system: HL-60(TB) leukemia
HOP-18 NSCLC = system: HOP-18 NSCLC
HOP-62 NSCLC = system: HOP-62 NSCLC
HOP-92 NSCLC = system: HOP-92 NSCLC
HT29 colon = system: HT29 colon
IGROV1 ovarian = system: IGROV1 ovarian
K-562 leukemia = system: K-562 leukemia
KM12 colon = system: KM12 colon
LXFL 529 NSCLC = system: LXFL 529 NSCLC
MALME-3M melanoma = system: MALME-3M melanoma
MOLT-4 leukemia = system: MOLT-4 leukemia
NCI-H226 lung = system: NCI-H226 lung
NCI-H23 lung = system: NCI-H23 lung
NCI-H460 lung = system: NCI-H460 lung
NCI-H522 lung = system: NCI-H522 lung
OVCAR-3 ovarian = system: OVCAR-3 ovarian
OVCAR-5 ovarian = system: OVCAR-5 ovarian
OVCAR-8 ovarian = system: OVCAR-8 ovarian
RPMI-8226 leukemia = system: RPMI-8226 leukemia
SF-268 CNS = system: SF-268 CNS
SF-295 CNS = system: SF-295 CNS
SF-539 CNS = system: SF-539 CNS
SK-MEL-2 melanoma = system: SK-MEL-2 melanoma
SK-MEL-28 melanoma = system: SK-MEL-28 melanoma
SK-MEL-5 melanoma = system: SK-MEL-5 melanoma
SK-OV-3 ovarian = system: SK-OV-3 ovarian
SNB-19 CNS = system: SNB-19 CNS
SNB-75 CNS = system: SNB-75 CNS
SR leukemia = system: SR leukemia
SW-620 colon = system: SW-620 colon
TK-10 renal = system: TK-10 renal
U251 CNS = system: U251 CNS
UACC-257 melanoma = system: UACC-257 melanoma
UACC-62 melanoma = system: UACC-62 melanoma
UO-31 renal = system: UO-31 renal
786-0 renal = system: 786-0 renal
CAKI-1 renal = system: CAKI-1 renal
EKVX NSCLC = system: EKVX NSCLC
KM20L2 colon = system: KM20L2 colon
M14 melanoma = system: M14 melanoma
OVCAR-4 ovarian = system: OVCAR-4 ovarian
SN12C renal = system: SN12C renal
SNB-78 CNS = system: SNB-78 CNS

Measured: TGI

Cc1nc(N(CCO)CCO)c2sc(=S)n(-c3ccccc3)c2n1
not listed: 786-0 renal | CAKI-1 renal | EKVX NSCLC | KM20L2 colon | M14 melanoma | OVCAR-4 ovarian | SN12C renal | SNB-78 CNS
> 100 µM: all other assays above

O=C(O)c1cc(=O)c2cc(C(=O)c3cccs3)c(Cl)c(Cl)c2o1
not listed: COLO 205 colon | HCT-116 colon | HOP-18 NSCLC | SF-539 CNS
> 100 µM: all other assays above
